Source: US9579314B2 (priority 2015, dated 2017)

Key:
Human M3 receptor = Human M3 receptor (Homo sapiens, UniProt P20309); settings: read-out: M3 binding affinity
Human β2 adrenoceptor = Human β2 adrenoceptor (Homo sapiens, UniProt P07550); settings: read-out: B2 binding affinity
Sequence of Human β2 adrenoceptor (P07550 whole entry): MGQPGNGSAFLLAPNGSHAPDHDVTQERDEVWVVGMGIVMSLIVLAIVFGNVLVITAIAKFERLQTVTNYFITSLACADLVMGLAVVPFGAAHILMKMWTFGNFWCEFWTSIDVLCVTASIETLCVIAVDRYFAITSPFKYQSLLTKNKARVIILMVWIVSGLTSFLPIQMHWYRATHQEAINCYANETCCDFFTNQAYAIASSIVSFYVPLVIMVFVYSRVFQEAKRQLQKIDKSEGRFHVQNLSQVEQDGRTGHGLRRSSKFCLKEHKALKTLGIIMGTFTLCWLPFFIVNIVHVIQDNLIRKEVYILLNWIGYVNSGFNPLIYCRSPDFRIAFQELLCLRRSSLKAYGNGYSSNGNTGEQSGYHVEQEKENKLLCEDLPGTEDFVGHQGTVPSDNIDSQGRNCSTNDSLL

Sequence of Human M3 receptor (P20309 whole entry): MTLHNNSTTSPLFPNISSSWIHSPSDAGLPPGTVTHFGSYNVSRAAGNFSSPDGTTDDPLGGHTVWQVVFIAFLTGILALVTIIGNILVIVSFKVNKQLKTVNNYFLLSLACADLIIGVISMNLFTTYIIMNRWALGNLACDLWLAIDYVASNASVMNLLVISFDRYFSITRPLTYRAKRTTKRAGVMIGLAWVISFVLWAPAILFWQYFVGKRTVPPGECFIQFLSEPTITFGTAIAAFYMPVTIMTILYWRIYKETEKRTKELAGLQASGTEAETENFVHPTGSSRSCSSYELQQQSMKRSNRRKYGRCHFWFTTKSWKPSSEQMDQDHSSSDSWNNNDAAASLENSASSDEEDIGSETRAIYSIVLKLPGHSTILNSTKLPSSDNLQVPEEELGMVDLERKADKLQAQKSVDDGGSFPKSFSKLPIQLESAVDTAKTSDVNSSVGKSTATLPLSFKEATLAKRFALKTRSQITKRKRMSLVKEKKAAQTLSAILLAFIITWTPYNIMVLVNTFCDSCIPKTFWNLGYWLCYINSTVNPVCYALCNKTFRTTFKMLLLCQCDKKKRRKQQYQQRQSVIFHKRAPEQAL

## Cc1ccc(C(O)(C(=O)OCC2CCN(Cc3ccccc3)CC2)c2cccc(OCCCCCNC[C@H](O)c3ccc(O)c4[nH]c(=O)ccc34)c2)cc1 (stereo partly drawn) [Compound 2, (1-benzylpiperidin-4-yl)methyl 2-hydroxy-2-(3-((5-(((R)-2-hydroxy-2-(8-hydroxy-2-oxo-1,2-dihydroquinolin-5-yl)ethyl)amino)pentyl)oxy)phenyl)-2-(p-tolyl)acetate]
Human M3 receptor
  IC50: 0.3 to 3 nM
Human β2 adrenoceptor
  IC50: 0.3 to 3 nM

## O=C(NCCc1cccc(C(O)(C(=O)OCC2CCN(Cc3ccccc3)CC2)c2ccccc2)c1)c1ccc(CCNC[C@H](O)c2ccc(O)c3[nH]c(=O)ccc23)cc1 (stereo partly drawn) [Compound 40, (1-benzylpiperidin-4-yl)methyl 2-hydroxy-2-(3-(2-(4-(2-(((R)-2-hydroxy-2-(8-hydroxy-2-oxo-1,2-dihydroquinolin-5-yl)ethyl)amino)ethyl)benzamido)ethyl)phenyl)-2-phenylacetate]
Human M3 receptor
  IC50: 0.3 to 3 nM
Human β2 adrenoceptor
  IC50: 0.3 to 3 nM

## O=C(COc1cccc([C@](O)(C(=O)OCC2CCN(Cc3ccccc3)CC2)c2ccccc2)c1)N[C@H]1CC[C@H](NC(=O)c2ccc(CNC[C@H](O)c3ccc(O)c4[nH]c(=O)ccc34)cc2)CC1 [Compound 62, (1-benzylpiperidin-4-yl)methyl (S)-2-hydroxy-2-(3-(2-(((1R,4S)-4-(4-((((R)-2-hydroxy-2-(8-hydroxy-2-oxo-1,2-dihydroquinolin-5-yl)ethyl)amino)methyl)benzamido)cyclohexyl)amino)-2-oxoethoxy)phenyl)-2-phenylacetate]
Human M3 receptor
  IC50: < 0.3 nM
Human β2 adrenoceptor
  IC50: < 0.3 nM

## O=C(NCC1CCN(C(=O)COc2cccc([C@](O)(C(=O)OCC3CCN(Cc4ccccc4)CC3)c3ccccc3)c2)CC1)c1ccc(CNC[C@H](O)c2ccc(O)c3[nH]c(=O)ccc23)cc1 [Compound 61, (1-benzylpiperidin-4-yl)methyl (S)-2-hydroxy-2-(3-(2-(4-((4-((((R)-2-hydroxy-2-(8-hydroxy-2-oxo-1,2-dihydroquinolin-5-yl)ethyl)amino)methyl)benzamido)methyl)piperidin-1-yl)-2-oxoethoxy)phenyl)-2-phenylacetate]
Human M3 receptor
  IC50: 0.3 to 3 nM
Human β2 adrenoceptor
  IC50: < 0.3 nM

## O=C(c1ccc(COc2cccc([C@](O)(C(=O)OCC3CCN(Cc4ccccc4)CC3)c3ccccc3)c2)cc1)N1CCC(CNC[C@H](O)c2ccc(O)c3[nH]c(=O)ccc23)CC1 [Compound 33, (S)-(1-benzylpiperidin-4-yl)methyl 2-hydroxy-2-(3-((4-(4-((((R)-2-hydroxy-2-(8-hydroxy-2-oxo-1,2-dihydroquinolin-5-yl)ethyl)amino)methyl)-piperidine-1-carbonyl)benzyl)oxy)phenyl)-2-phenylacetate]
Human M3 receptor
  IC50: < 0.3 nM
Human β2 adrenoceptor
  IC50: < 0.3 nM

## O=C(COc1cccc([C@](O)(C(=O)OCC2CCN(Cc3ccccc3)CC2)c2ccccc2)c1)N1CCC2(CC1)CCN(C(=O)c1ccc(CNC[C@H](O)c3ccc(O)c4[nH]c(=O)ccc34)cc1)CC2 [Compound 64, (1-benzylpiperidin-4-yl)methyl (S)-2-hydroxy-2-(3-(2-(9-(4-((((R)-2-hydroxy-2-(8-hydroxy-2-oxo-1,2-dihydroquinolin-5-yl)ethyl)amino)methyl)benzoyl)-3,9-diazaspiro[5.5]undecan-3-yl)-2-oxoethoxy)phenyl)-2-phenylacetate]
Human M3 receptor
  IC50: < 0.3 nM
Human β2 adrenoceptor
  IC50: 0.3 to 3 nM

## O=C(COc1cccc([C@](O)(C(=O)OCC2CCN(Cc3ccccc3)CC2)c2ccccc2)c1)N[C@H]1CCCN(C(=O)c2ccc(CNC[C@H](O)c3ccc(O)c4[nH]c(=O)ccc34)cc2)C1 [Compound 69, (1-benzylpiperidin-4-yl)methyl (S)-2-hydroxy-2-(3-(2-(((S)-1-(4-((((R)-2-hydroxy-2-(8-hydroxy-2-oxo-1,2-dihydroquinolin-5-yl)ethyl)amino)methyl)benzoyl)piperidin-3-yl)amino)-2-oxoethoxy)phenyl)-2-phenylacetate]
Human M3 receptor
  IC50: 0.3 to 3 nM
Human β2 adrenoceptor
  IC50: 0.3 to 3 nM

## O=C(c1ccc(CNC[C@H](O)c2ccc(O)c3[nH]c(=O)ccc23)cc1)N1CC(COc2cccc([C@](O)(C(=O)OCC3CCN(Cc4ccccc4)CC3)c3ccccc3)c2)C1 [Compound 41, (S)-(1-benzylpiperidin-4-yl)methyl 2-hydroxy-2-(3-((1-(4-((((R)-2-hydroxy-2-(8-hydroxy-2-oxo-1,2-dihydroquinolin-5-yl)ethyl)amino)methyl)-benzoyl)azetidin-3-yl)methoxy)phenyl)-2-phenylacetate]
Human M3 receptor
  IC50: 0.3 to 3 nM
Human β2 adrenoceptor
  IC50: 0.3 to 3 nM

## COc1cc(CNC[C@H](O)c2ccc(O)c3[nH]c(=O)ccc23)ccc1C(=O)N1CCC2(CCN(C(=O)COc3cccc([C@](O)(C(=O)OCC4CCN(Cc5ccccc5)CC4)c4ccccc4)c3)CC2)CC1 [Compound 81, (1-benzylpiperidin-4-yl)methyl (S)-2-hydroxy-2-(3-(2-(9-(4-((((R)-2-hydroxy-2-(8-hydroxy-2-oxo-1,2-dihydroquinolin-5-yl)ethyl)amino)methyl)-2-methoxybenzoyl)-3,9-diazaspiro[5.5]undecan-3-yl)-2-oxoethoxy)phenyl)-2-phenylacetate]
Human M3 receptor
  IC50: 0.3 to 3 nM
Human β2 adrenoceptor
  IC50: 0.3 to 3 nM

## O=C(NCCCOc1cccc([C@](O)(C(=O)OCC2CCN(Cc3ccccc3)CC2)c2ccccc2)c1)c1ccc(CNC[C@H](O)c2ccc(O)c3[nH]c(=O)ccc23)nc1 [Compound 32C, (S)-(1-benzylpiperidin-4-yl)methyl 2-hydroxy-2-(3-(3-(6-((((R)-2-hydroxy-2-(8-hydroxy-2-oxo-1,2-dihydroquinolin-5-yl)ethyl)amino)methyl)nicotinamido)propoxy)phenyl)-2-phenylacetate]
Human M3 receptor
  IC50: 0.3 to 3 nM
Human β2 adrenoceptor
  IC50: < 0.3 nM

## O=C(COc1cccc([C@](O)(C(=O)OCC2CCN(Cc3ccccc3)CC2)c2ccccc2)c1)N[C@H]1C[C@H](NC(=O)c2ccc(CNC[C@H](O)c3ccc(O)c4[nH]c(=O)ccc34)c(C(F)(F)F)c2)C1 [Compound 138, (1-benzylpiperidin-4-yl)methyl (S)-2-hydroxy-2-(3-(2-(((1R,3S)-3-(4-((((R)-2-hydroxy-2-(8-hydroxy-2-oxo-1,2-dihydroquinolin-5-yl)ethyl)amino)methyl)-3-(trifluoromethyl)benzamido)cyclobutyl)amino)-2-oxoethoxy)phenyl)-2-phenylacetate]
Human M3 receptor
  IC50: 0.3 to 3 nM
Human β2 adrenoceptor
  IC50: 0.3 to 3 nM

## O=C(COc1cccc([C@](O)(C(=O)OCC2CCN(Cc3ccccc3)CC2)c2ccccc2)c1)NC1CCN(C(=O)c2ccc(CCNC[C@H](O)c3ccc(O)c4[nH]c(=O)ccc34)cc2)CC1 [Compound 91, (1-benzylpiperidin-4-yl)methyl (S)-2-hydroxy-2-(3-(2-((1-(4-(2-(((R)-2-hydroxy-2-(8-hydroxy-2-oxo-1,2-dihydroquinolin-5-yl)ethyl)amino)ethyl)benzoyl)piperidin-4-yl)amino)-2-oxoethoxy)phenyl)-2-phenylacetate]
Human M3 receptor
  IC50: 0.3 to 3 nM
Human β2 adrenoceptor
  IC50: < 0.3 nM

## CN1CCC(COC(=O)[C@](O)(c2ccccc2)c2cccc(OCCCCCNC[C@H](O)c3ccc(O)c4[nH]c(=O)ccc34)c2)CC1 [Compound 23, (S)-(1-methylpiperidin-4-yl)methyl 2-hydroxy-2-(3-((5-(((R)-2-hydroxy-2-(8-hydroxy-2-oxo-1,2-dihydroquinolin-5-yl)ethyl)amino)pentyl)oxy)phenyl)-2-phenylacetate]
Human M3 receptor
  IC50: 0.3 to 3 nM
Human β2 adrenoceptor
  IC50: 0.3 to 3 nM

## O=C(NCCCNC[C@H](O)c1ccc(O)c2[nH]c(=O)ccc12)c1ccc(COc2cccc([C@@](O)(C(=O)OCC3CCN(Cc4ccccc4)CC3)c3ccccc3)c2)cc1 [Compound 44, (R)-(1-Benzylpiperidin-4-yl)methyl 2-hydroxy-2-(3-((4-((3-(((R)-2-hydroxy-2-(8-hydroxy-2-oxo-1,2-dihydroquinolin-5-yl)ethyl)amino)propyl)carbamoyl)benzyl)oxy)phenyl)-2-phenylacetate]
Human M3 receptor
  IC50: 0.3 to 3 nM
Human β2 adrenoceptor
  IC50: < 0.3 nM

## CN(CCNC(=O)c1ccc(CCNC[C@H](O)c2ccc(O)c3[nH]c(=O)ccc23)cc1)C(=O)COc1cccc([C@](O)(C(=O)OCC2CCN(Cc3ccccc3)CC2)c2ccccc2)c1 [Compound 84, (1-benzylpiperidin-4-yl)methyl (S)-2-hydroxy-2-(3-(2-((2-(4-(2-(((R)-2-hydroxy-2-(8-hydroxy-2-oxo-1,2-dihydroquinolin-5-yl)ethyl)amino)ethyl)benzamido)ethyl)(methyl)amino)-2-oxoethoxy)phenyl)-2-phenylacetate]
Human M3 receptor
  IC50: > 3 nM
Human β2 adrenoceptor
  IC50: 0.3 to 3 nM

## O=C(NC1CN(C(=O)COc2cccc([C@](O)(C(=O)OCC3CCN(Cc4ccccc4)CC3)c3ccccc3)c2)C1)c1ccc(CNC[C@H](O)c2ccc(O)c3[nH]c(=O)ccc23)cc1 [Compound 67, (1-benzylpiperidin-4-yl)methyl (S)-2-hydroxy-2-(3-(2-(3-(4-((((R)-2-hydroxy-2-(8-hydroxy-2-oxo-1,2-dihydroquinolin-5-yl)ethyl)amino)methyl)benzamido)azetidin-1-yl)-2-oxoethoxy)phenyl)-2-phenylacetate]
Human M3 receptor
  IC50: < 0.3 nM
Human β2 adrenoceptor
  IC50: < 0.3 nM

## O=C(COc1cccc([C@](O)(C(=O)OCC2CCN(Cc3ccccc3)CC2)c2ccccc2)c1)N[C@H]1C[C@H](NC(=O)c2ccc(CNC[C@H](O)c3ccc(O)c4[nH]c(=O)ccc34)c(F)c2)C1 [Compound 132, (1-benzylpiperidin-4-yl)methyl (S)-2-(3-(2-(((1R,3S)-3-(3-fluoro-4-((((R)-2-hydroxy-2-(8-hydroxy-2-oxo-1,2-dihydroquinolin-5-yl)ethyl)amino)methyl)benzamido)cyclobutyl)amino)-2-oxoethoxy)phenyl)-2-hydroxy-2-phenylacetate]
Human M3 receptor
  IC50: 0.3 to 3 nM
Human β2 adrenoceptor
  IC50: < 0.3 nM

## COc1cc(C(=O)N2CC(NC(=O)COc3cccc([C@](O)(C(=O)OCC4CCN(Cc5ccccc5)CC4)c4ccccc4)c3)C2)ccc1CNC[C@H](O)c1ccc(O)c2[nH]c(=O)ccc12 [Compound 78, (1-benzylpiperidin-4-yl)methyl (S)-2-hydroxy-2-(3-(2-((1-(4-((((R)-2-hydroxy-2-(8-hydroxy-2-oxo-1,2-dihydroquinolin-5-yl)ethyl)amino)methyl)-3-methoxybenzoyl)azetidin-3-yl)amino)-2-oxoethoxy)phenyl)-2-phenylacetate]
Human M3 receptor
  IC50: < 0.3 nM
Human β2 adrenoceptor
  IC50: < 0.3 nM
